From the supplement of paper PMC10307832

Legend:
Assay in all cases: relative viability (nuclei count vs DMSO), 5 days (fraction); higher = more cells survive
[1] = compound: CCN(CCO)CCCC(C)Nc1ccnc2cc(Cl)ccc12 [Hydroxychloroquine] + CC(=O)Nc1cccc(-n2c(=O)n(C3CC3)c(=O)c3c(Nc4ccc(I)cc4F)n(C)c(=O)c(C)c32)c1 [Trametinib] (partner 0.02 µM)
Outline: (§1)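 Relative viability was taken as the ratio of nuclei in treated wells to nuclei in vehicle wells. Lung cancer cell lines in 1536-well plates received compounds by pin tool one day after seeding, either one drug alone or a fixed anchor-drug dose plus five library-drug doses (not always all listed) in √10 steps. Nuclei were counted on 4× images after 5 days of treatment, and values are medians of duplicate plates.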

[2] = compound: CCN(CCO)CCCC(C)Nc1ccnc2cc(Cl)ccc12 [Hydroxychloroquine] + COc1cccc2cc(-c3nc([C@H]4CC[C@H](C(=O)O)CC4)n4ncnc(N)c34)[nH]c12 [OSI-027] (partner 0.5 µM)
Outline: as §1

[3] = compound: CCN(CCO)CCCC(C)Nc1ccnc2cc(Cl)ccc12 [Hydroxychloroquine] + CS(=O)(=O)CCNCc1ccc(-c2ccc3ncnc(Nc4ccc(OCc5cccc(F)c5)c(Cl)c4)c3c2)o1 [Lapatinib] (partner 2 µM)
Outline: as §1

[4] = compound: CCN(CCO)CCCC(C)Nc1ccnc2cc(Cl)ccc12 [Hydroxychloroquine] + C[C@]1(O)C[C@@H](c2nc(-c3ccc4ccc(-c5ccccc5)nc4c3)c3c(N)nccn32)C1 [Linsitinib] (partner 1 µM)
Outline: as §1

Row | Cell Line | relative viability ([1]; first compound 0.5 µM) | relative viability ([1]; first compound 1.581 µM) | relative viability ([1]; first compound 5 µM) | relative viability ([1]; first compound 15.81 µM) | relative viability ([1]; first compound 50 µM) | relative viability ([2]; first compound 0.5 µM) | relative viability ([2]; first compound 1.581 µM) | relative viability ([2]; first compound 5 µM) | relative viability ([2]; first compound 15.81 µM) | relative viability ([2]; first compound 50 µM) | relative viability ([3]; first compound 0.5 µM) | relative viability ([3]; first compound 1.581 µM) | relative viability ([3]; first compound 5 µM) | relative viability ([3]; first compound 15.81 µM) | relative viability ([3]; first compound 50 µM) | relative viability ([4]; first compound 0.5 µM) | relative viability ([4]; first compound 1.581 µM) | relative viability ([4]; first compound 5 µM) | relative viability ([4]; first compound 15.81 µM) | relative viability ([4]; first compound 50 µM)
1 | 201T | 0.727 | 0.777 | 0.728 | 0.733 | 0.724 | 0.731 | 0.738 | 0.721 | 0.827 | 0.965 | 1.05 | 1.02 | 1.02 | 1.02 | 1.05 | 1.07 | 0.987 | 1.07 | 1 | 1.13
2 | A549 |  |  |  |  |  |  |  |  |  |  | 0.976 | 0.859 | 0.906 | 0.974 | 0.977 | 0.617 | 0.543 | 0.576 | 0.646 | 0.629
3 | A-427 | 0.752 | 0.639 | 0.697 | 0.715 | 0.675 | 0.486 | 0.308 | 0.387 | 0.412 | 0.424 | 0.996 | 0.955 | 1.07 | 1.01 | 1.09 | 1.13 | 1.05 | 1.13 | 1.09 | 1.16
4 | ABC-1 |  |  |  |  |  | 0.469 | 0.501 | 0.467 | 0.417 | 0.631 | 0.987 | 1.09 | 1.13 | 1.43 | 1.23 | 1 | 0.698 | 0.959 | 0.759 | 0.879
5 | BEN | 0.951 | 0.881 | 0.954 | 1.12 | 1.03 | 0.319 | 0.284 | 0.268 | 0.373 | 0.325 | 0.704 | 0.553 | 0.609 | 0.707 | 0.891 | 0.87 | 0.929 | 0.872 | 0.973 | 1.15
6 | CAL-12T | 0.268 | 0.265 | 0.326 | 0.338 | 0.32 | 0.97 | 0.8 | 0.633 | 0.684 | 0.687 | 0.752 |  | 0.659 | 0.633 | 0.691 | 0.916 | 0.75 | 0.773 | 0.866 | 0.886
7 | COR-L23 | 0.602 | 0.582 | 0.616 | 0.767 | 0.712 | 0.756 | 0.809 | 0.822 | 0.91 | 0.85 | 0.681 | 0.992 | 0.992 | 1.23 | 1.21 | 0.989 | 0.872 | 0.947 | 0.997 | 1.02
8 | COR-L 105 | 0.472 | 0.393 | 0.44 | 0.384 | 0.391 | 0.643 | 0.598 | 0.708 | 0.739 | 0.668 | 0.369 | 0.37 | 0.346 | 0.318 | 0.327 | 1.08 | 1 | 0.905 | 0.851 | 0.814
9 | Calu-6 |  |  |  |  |  |  |  |  |  |  | 1.05 | 1.18 | 0.991 | 1.02 | 1.01 | 0.864 | 0.881 | 1.11 | 0.938 | 0.942
10 | ChaGo-K-1 | 0.962 | 0.916 | 0.865 | 0.853 | 0.891 | 0.688 | 0.675 | 0.498 | 0.53 | 0.609 |  |  |  |  |  |  |  |  |  | 
11 | EBC-1 |  |  |  |  |  |  |  |  |  |  | 0.212 | 0.183 | 0.213 | 0.225 | 0.182 | 0.953 | 0.505 | 0.992 | 0.769 | 0.915
12 | EKVX | 0.348 | 0.302 | 0.316 | 0.637 | 0.352 | 0.797 | 0.851 | 0.79 | 0.758 | 0.776 | 0.246 | 0.181 | 0.224 | 0.168 | 0.199 | 0.929 | 1.01 | 1.09 | 0.955 | 1.05
13 | EMC-BAC-2 | 0.917 | 0.694 | 0.85 | 0.784 | 0.753 | 0.376 | 0.324 | 0.381 | 0.368 | 0.365 | 0.96 | 0.722 | 0.897 | 0.832 | 0.956 | 0.817 | 0.772 | 0.87 | 0.82 | 0.852
14 | EPLC-272H | 0.272 | 0.311 | 0.273 | 0.271 | 0.298 | 0.249 | 0.232 | 0.276 | 0.252 | 0.314 | 0.988 | 0.879 | 0.77 | 0.877 | 1.06 | 1.13 | 1 | 1.2 | 1.12 | 1.25
15 | H3255 | 0.695 | 0.614 | 0.546 | 0.854 | 0.665 | 0.653 | 0.524 | 0.569 | 0.6 | 0.665 | 0.272 | 0.243 | 0.205 | 0.248 | 0.202 | 0.946 | 0.999 | 0.976 | 0.944 | 0.982
16 | HARA | 0.725 | 0.975 | 0.88 | 0.704 | 0.613 | 0.608 | 0.416 | 0.469 | 0.486 | 0.435 | 0.712 | 0.731 | 0.597 | 0.765 | 0.635 | 1.01 | 0.993 | 0.996 | 0.997 | 0.913
17 | HCC-15 | 0.4 | 0.387 | 0.351 | 0.38 | 0.311 | 0.754 | 0.672 | 0.634 | 0.656 | 0.724 | 0.847 | 0.812 | 0.873 | 0.867 | 0.836 | 0.815 | 0.861 | 0.879 | 0.912 | 0.898
18 | HCC-44 | 1.07 | 1.04 | 1.14 | 1.08 | 1.1 | 0.504 | 0.418 | 0.43 | 0.511 | 0.547 | 0.989 | 1.07 | 1.08 | 1.06 | 1.04 | 0.634 | 0.682 | 0.723 | 0.748 | 0.774
